“And” between values parts separate entries of the source, which are not always exact repeats. Equal values may be shown once.
Test system: T2 soybean events expressing the indicated Amaranthus PPO2 variant transgene
Experiment: Soybean PPO inhibitor tolerance testing, injury score (Table C)
Format: in vivo, Soybean cv Jake
Settings: V2 stage, 3 days after treatment, individual plants
Experimental: Soybean cv Jake is transformed as previously described by Siminszky et al., Phytochem Rev. 5:445-458 (2006). After regeneration, transformants are transplanted to soil in small pots, placed in growth chambers (16 hr day/8 hr night; 25° C. day/23° C. night; 65% relative humidity; 130-150 microE m-2 s-1) and subsequently tested for the presence of the T-DNA via Taqman analysis. After a few weeks, healthy, transgenic positive, single copy events are transplanted to larger pots and allowed to grow in the growth chamber. An optimal shoot for cutting is about 3-4 inches tall, with at least two nodes present. Each cutting is taken from the original transformant (mother plant) and dipped into rooting hormone powder (indole-3-butyric acid, IBA). The cutting is then placed in oasis wedges inside a bio-dome. The mother plant is taken to maturity in the greenhouse and harvested for seed. Wild type cuttings are also taken simultaneously to serve as negative controls. The cuttings are kept in the bio-dome for 5-7 days and then transplanted to 3 inch pots and then acclimated in the growth chamber for two more days. Subsequently, the cuttings are transferred to the greenhouse, acclimated for approximately 4 days prior to spray. […] g ai/ha saflufenacil plus 1% MSO and/or 25-200 g ai/ha 1,5-dimethyl-6-thioxo-3-(2,2,7-trifluoro-3-oxo-4-(prop-2-ynyl)-3,4-dihydro-2H-benzo[b][1,4]oxazin-6-yl)-1,3,5-triazinane-2,4-dione (CAS 1258836-72-4) plus 1% MSO. Other PPO inhibiting herbicides are also tested in a similar fashion for confirming cross resistance: flumioxazin, butafenacil, acifluorfen, lactofen, bifenox, sulfentrazone, methyl 2-[2-chloro-5-[3-chloro-5-(trifluoromethyl)-2-pyridyl]-4-fluoro-phenoxy]-2-methoxy-acetate, ethyl 2-[2-chloro-5-[3-chloro-5-(trifluoromethyl)-2-pyridyl]-4-fluoro-phenoxy]-2-methoxy-acetate, prop-2-ynyl 2-[2-chloro-5-[3-chloro-5-(trifluoromethyl)-2-pyridyl]-4-fluoro-phenoxy]-2-methoxy-acetate and photosynthesis inhibitor diuron as negative control. […]
The following gives a definition of the injury scores measured above: […]

[1] = soybean T2, transgene L397E_F420M, 25 g ai/ha + 1% v/v MSO
[2] = soybean T2, transgene L397E_F420M, 50 g ai/ha + 1% v/v MSO
[3] = soybean T2, transgene L397E_F420M, 100 g ai/ha + 1% v/v MSO
[4] = soybean T2, transgene L397E_F420M, 200 g ai/ha + 1% v/v MSO
[5] = soybean T2, transgene L397Q_F420M, 25 g ai/ha + 1% v/v MSO
[6] = soybean T2, transgene L397Q_F420M, 50 g ai/ha + 1% v/v MSO
[7] = soybean T2, transgene L397Q_F420M, 100 g ai/ha + 1% v/v MSO
[8] = soybean T2, transgene L397Q_F420M, 200 g ai/ha + 1% v/v MSO
[9] = soybean T2, transgene R128A_F420I event 1, 25 g ai/ha + 1% v/v MSO
[10] = soybean T2, transgene R128A_F420I event 1, 50 g ai/ha + 1% v/v MSO
[11] = soybean T2, transgene R128A_F420I event 1, 100 g ai/ha + 1% v/v MSO
[12] = soybean T2, transgene R128A_F420I event 1, 200 g ai/ha + 1% v/v MSO
[13] = soybean T2, transgene R128A_F420I event 2, 25 g ai/ha + 1% v/v MSO
[14] = soybean T2, transgene R128A_F420I event 2, 50 g ai/ha + 1% v/v MSO
[15] = soybean T2, transgene R128A_F420I event 2, 100 g ai/ha + 1% v/v MSO
[16] = soybean T2, transgene R128A_F420I event 2, 200 g ai/ha + 1% v/v MSO
[17] = soybean T2, transgene R128A_F420I event 3, 25 g ai/ha + 1% v/v MSO
[18] = soybean T2, transgene R128A_F420I event 3, 50 g ai/ha + 1% v/v MSO
[19] = soybean T2, transgene R128A_F420I event 3, 100 g ai/ha + 1% v/v MSO
[20] = soybean T2, transgene R128A_F420I event 3, 200 g ai/ha + 1% v/v MSO
[21] = soybean T2, transgene R128A_F420V, 25 g ai/ha + 1% v/v MSO
[22] = soybean T2, transgene R128A_F420V, 50 g ai/ha + 1% v/v MSO
[23] = soybean T2, transgene R128A_F420V, 100 g ai/ha + 1% v/v MSO
[24] = soybean, Non transgenic, 25 g ai/ha + 1% v/v MSO
[25] = soybean, Non transgenic, 50 g ai/ha + 1% v/v MSO
[26] = soybean, Non transgenic, 100 g ai/ha + 1% v/v MSO
[27] = soybean, Non transgenic, 200 g ai/ha + 1% v/v MSO

## CCOC(=O)C(OC)Oc1cc(-c2ncc(C(F)(F)F)cc2Cl)c(F)cc1Cl (stereo not shown) [ethyl 2-[2-chloro-5-[3-chloro-5-(trifluoromethyl)-2-pyridyl]-4-fluoro-phenoxy]-2-methoxy-acetate]
[1]
  injury on a 0-9 point scale: 0 (2×) and 9
[2]
  injury on a 0-9 point scale: 0 (2×) and 2
[3]
  injury on a 0-9 point scale: 3 (2×) and 9
[4]
  injury on a 0-9 point scale: 4 and 3 and 5
[5]
  injury on a 0-9 point scale: 1 and 9
[6]
  injury on a 0-9 point scale: 9 and 3 and 2
[7]
  injury on a 0-9 point scale: 2
[8]
  injury on a 0-9 point scale: 2 and 9
[9]
  injury on a 0-9 point scale: 0 (2×) and 1
[10]
  injury on a 0-9 point scale: 0 (2×) and 1
[11]
  injury on a 0-9 point scale: 4
[12]
  injury on a 0-9 point scale: 4 (2×) and 5
[13]
  injury on a 0-9 point scale: 2 and 5 and 1
[14]
  injury on a 0-9 point scale: 1 and 2
[15]
  injury on a 0-9 point scale: 5 and 9
[16]
  injury on a 0-9 point scale: 7 and 4 (2×)
[17]
  injury on a 0-9 point scale: 1
[18]
  injury on a 0-9 point scale: 1
[19]
  injury on a 0-9 point scale: 3 and 2
[20]
  injury on a 0-9 point scale: 3 (2×) and 4
[21]
  injury on a 0-9 point scale: 0
[22]
  injury on a 0-9 point scale: 5
[23]
  injury on a 0-9 point scale: 4
Soybean T2, transgene R128A_F420V, 200 g ai/ha + 1% v/v MSO
  injury on a 0-9 point scale: 4 and 5
[24]
  injury on a 0-9 point scale: 9
[25]
  injury on a 0-9 point scale: 9
[26]
  injury on a 0-9 point scale: 9
[27]
  injury on a 0-9 point scale: 9

## C#CCOC(=O)C(OC)Oc1cc(-c2ncc(C(F)(F)F)cc2Cl)c(F)cc1Cl (stereo not shown) [prop-2-ynyl 2-[2-chloro-5-[3-chloro-5-(trifluoromethyl)-2-pyridyl]-4-fluoro-phenoxy]-2-methoxy-acetate]
[1]
  injury on a 0-9 point scale: 1 and 0 and 9
[2]
  injury on a 0-9 point scale: 0 (2×) and 1
[3]
  injury on a 0-9 point scale: 1
[4]
  injury on a 0-9 point scale: 3 (2×) and 4
[5]
  injury on a 0-9 point scale: 0
[6]
  injury on a 0-9 point scale: 2 and 1 and 0
[7]
  injury on a 0-9 point scale: 1 and 2 (2×)
[8]
  injury on a 0-9 point scale: 1 (2×) and 2
[9]
  injury on a 0-9 point scale: 0
[10]
  injury on a 0-9 point scale: 2 and 3 and 4
[11]
  injury on a 0-9 point scale: 5
[12]
  injury on a 0-9 point scale: 5 (2×) and 4
[13]
  injury on a 0-9 point scale: 0
[14]
  injury on a 0-9 point scale: 2 (2×) and 3
[15]
  injury on a 0-9 point scale: 4 (2×) and 5
[16]
  injury on a 0-9 point scale: 5
[17]
  injury on a 0-9 point scale: 0
[18]
  injury on a 0-9 point scale: 2
[19]
  injury on a 0-9 point scale: 1
[20]
  injury on a 0-9 point scale: 3 and 4
[21]
  injury on a 0-9 point scale: 2
[22]
  injury on a 0-9 point scale: 4 (2×) and 5
[23]
  injury on a 0-9 point scale: 4
[24]
  injury on a 0-9 point scale: 9
[25]
  injury on a 0-9 point scale: 9
[26]
  injury on a 0-9 point scale: 9
[27]
  injury on a 0-9 point scale: 9

Reference: patent US11149030B2, “Plants having increased tolerance to herbicides” (BASF AGRO B.V., priority 2016, dated 2021)
